System: diarrhea-predominant IBS subjects
Experiment: Study S241.3.006: weekly diary questions on adequate relief
Format: in vivo, human
Method: The study was conducted in 129 study centers in the United States. At total of 2080 subjects consented to participate, and 711 subjects were randomized. A total of 692 subjects were analyzed for efficacy and 701 subjects were analyzed for safety. Diagnosis and main criteria for inclusion were IBS subjects satisfying the Rome I criteria (1992); the diarrhea predominant sub-population of the Rome II criteria; and a minimum abdominal pain/discomfort, stool frequency and consistency determined during the run-in period. Subjects were treated with cilansetron 2 mg tablets given orally TID or matching placebo tablets given orally TID for 12 weeks double-blind treatment.
The primary efficacy parameter was the number of months that a subject was a responder for IBS symptoms (abdominal pain, abdominal discomfort, abnormal bowel habits) over the 12-week treatment period. A responder for a month (monthly responder) was defined as a subject who answered the weekly question with “yes” at least twice for that month.
Studies S24 1.3.OO6, S24 1.3.0 1 1, and S24 1.3.009 used the following efficacy measurements: • The subjects answered the following three questions with “yes” or “no” using a phone diary at the end of each week: • a) During the last week, did you experience adequate relief of your IBS symptoms, such as abdominal pain, abdominal discomfort, abnormal bowel habits? • b) During the last week, did you experience adequate relief of your abdominal pain and/or discomfort? • c) During the last week, did you experience adequate relief of your abnormal bowel habits? • The subjects rated the following symptoms using the phone diary at the end of each day: • abdominal pain/discomfort (five-point scale); • stool consistency (seven-point Bristol Stool Scale); • stool frequency (number of bowel movements each day); • urgency (five-point scale); • straining (yes or no); • feeling of incomplete defecation (yes or no); • bloating or feeling of abdominal distension (five-point scale). • In Studies S241 A006 and S241.3.009, subjects completed the IBS-QOL Survey at Baseline (Day 1) and at the end of treatment. In Study S24 1.3.0 1 1, subjects completed the IBS-QOL Survey at Baseline (Day 1), at the end of the three-month treatment period, and at the end of rerandomized treatment.
In all three pivotal efficacy studies, the primary and main secondary efficacy parameters were based on the weekly diary questions on adequate relief and included the following: • 1. Number of months (one month equals four weeks) that a subject was a responder for the weekly diary questions on adequate relief. A responder for a month (monthly responder) was defined as a subject who answered the weekly question with “yes” at least twice for that month. For Studies S241.3.006 and S241.3.011, the primary efficacy parameter was the number of months that a subject was a responder for IBS symptoms during the 12-week treatment period. The two main secondary efficacy parameters were the number of months that a subject was a responder for abdominal pain/discomfort and abnormal bowel habits during the 12-week treatment period. For Study S241.3.009, the number of months that a subject was a responder for the weekly diary questions on adequate relief during Months 1 to 3 (the first 12 weeks) and Months 1 to 6 (24-week) was an additional key secondary efficacy parameter. • 2. Overall responder rate for the weekly diary questions on adequate relief. A responder was defined as a subject who answered the weekly question with “yes” for at least half of the answers available with a minimum of four weeks treatment duration. If a subject had less than four weeks treatment duration, the subject was considered a non-responder. The overall responder rate was the percentage of responders within a treatment group. For Study S241.3.009, the primary efficacy parameter was the overall responder rate for IBS symptoms during the 26-week treatment period. […]

[1] = 2 mg TID, monthly LOCF, ITT N = 344
[2] = 2 mg TID, three-month treatment period, monthly LOCF, ITT N = 344
[3] = 2 mg TID, three-month treatment period, observed case, ITT N = 344
[4] = Baseline BMI: <30 kg/m^2, three-month treatment period, monthly LOCF, ITT, 2 mg TID
[5] = Baseline BMI: ≧30 kg/m^2, three-month treatment period, monthly LOCF, ITT, 2 mg TID
[6] = Baseline severity of IBS: non-severe, three-month treatment period, monthly LOCF, ITT, 2 mg TID
[7] = Baseline severity of IBS: non-severe, three-month treatment period, observed case, ITT, 2 mg TID
[8] = Baseline severity of IBS: severe, three-month treatment period, monthly LOCF, ITT, 2 mg TID
[9] = Baseline severity of IBS: severe, three-month treatment period, observed case, ITT, 2 mg TID

Structure (SMILES): Cc1nccn1C[C@H]1CCc2c(c3cccc4c3n2CCC4)C1=O [Cilansetron, (R)-(−)-4,5,6,8,9,10-hexahydro-10-[(2-methyl-1H-imidazol-1-yl)methyl]-11H-pyrido-[3,2,1-jk]-carbazol-11-one]
- Responders for one month, IBS symptoms (2 mg TID, 3 months): 13%
- Responders for one month, abdominal pain/discomfort (2 mg TID, 3 months): 12%
- Responders for one month, abnormal bowel habits (2 mg TID, 3 months): 12%
- Responders for three months, IBS symptoms (2 mg TID, 3 months): 35%
- Responders for three months, abdominal pain/discomfort (2 mg TID, 3 months): 40%
- Responders for three months, abnormal bowel habits (2 mg TID, 3 months): 38%
- Responders for two months, IBS symptoms (2 mg TID, 3 months): 15%
- Responders for two months, abdominal pain/discomfort (2 mg TID, 3 months): 14%
- Responders for two months, abnormal bowel habits (2 mg TID, 3 months): 15%
- Responders for zero months, IBS symptoms (2 mg TID, 3 months): 37%
- Responders for zero months, abdominal pain/discomfort (2 mg TID, 3 months): 34%
- Responders for zero months, abnormal bowel habits (2 mg TID, 3 months): 36%
- Responder rate, adequate relief of IBS symptoms, Each month of Months 1 to 3 [1]: 119 (35) n (%)
- Responder rate, adequate relief of IBS symptoms, Month 1 [1]: 176 (51) n (%)
- Responder rate, adequate relief of IBS symptoms, Month 2 [1]: 163 (47) n (%)
- Responder rate, adequate relief of IBS symptoms, Month 3 [1]: 169 (49) n (%)
- Responder rate, adequate relief of abdominal pain/discomfort, Each month of Months 1 to 3 [1]: 139 (40) n (%)
- Responder rate, adequate relief of abdominal pain/discomfort, Month 1 [1]: 192 (56) n (%)
- Responder rate, adequate relief of abdominal pain/discomfort, Month 2 [1]: 178 (52) n (%)
- Responder rate, adequate relief of abdominal pain/discomfort, Month 3 [1]: 183 (53) n (%)
- Responder rate, adequate relief of abnormal bowel habits, Each month of Months 1 to 3 [1]: 129 (38) n (%)
- Responder rate, adequate relief of abnormal bowel habits, Month 1 [1]: 180 (52) n (%)
- Responder rate, adequate relief of abnormal bowel habits, Month 2 [1]: 178 (52) n (%)
- Responder rate, adequate relief of abnormal bowel habits, Month 3 [1]: 173 (50) n (%)
- Subjects who were responders for One month, adequate relief of IBS symptoms [2]: 45 (13) n (%)
- Subjects who were responders for One month, adequate relief of abdominal pain/discomfort [2]: 42 (12) n (%)
- Subjects who were responders for One month, adequate relief of abnormal bowel habits [2]: 40 (12) n (%)
- Subjects who were responders for Three months, adequate relief of IBS symptoms [2]: 119 (35) n (%)
- Subjects who were responders for Three months, adequate relief of abdominal pain/discomfort [2]: 139 (40) n (%)
- Subjects who were responders for Three months, adequate relief of abnormal bowel habits [2]: 129 (38) n (%)
- Subjects who were responders for Two months, adequate relief of IBS symptoms [2]: 53 (15) n (%)
- Subjects who were responders for Two months, adequate relief of abdominal pain/discomfort [2]: 47 (14) n (%)
- Subjects who were responders for Two months, adequate relief of abnormal bowel habits [2]: 52 (15) n (%)
- Subjects who were responders for Zero months, adequate relief of IBS symptoms [2]: 127 (37) n (%)
- Subjects who were responders for Zero months, adequate relief of abdominal pain/discomfort [2]: 116 (34) n (%)
- Subjects who were responders for Zero months, adequate relief of abnormal bowel habits [2]: 123 (36) n (%)
- Overall responder rate, adequate relief of IBS symptoms [3]: 168 (49) n (%)
- Overall responder rate, adequate relief of abdominal pain/discomfort [3]: 179 (52) n (%)
- Overall responder rate, adequate relief of abnormal bowel habits [3]: 174 (51) n (%)
- Median adequate relief rate, IBS symptoms (3 months): 0.50
- Median adequate relief rate, abdominal pain/discomfort (3 months): 0.58
- Median adequate relief rate, abnormal bowel habits (3 months): 0.50
- Overall responder rate, IBS symptoms (3 months, observed case, ITT): 49%
- Overall responder rate, abdominal pain/discomfort (3 months, observed case, ITT): 52%
- Overall responder rate, abnormal bowel habits (3 months, observed case, ITT): 51%
- Number of months a subject was a responder: One month (Abdominal pain/discomfort) [4]: 26 (11) n (%)
- Number of months a subject was a responder: One month (Abnormal bowel habits) [4]: 27 (12) n (%)
- Number of months a subject was a responder: One month (IBS symptoms) [4]: 29 (13) n (%)
- Number of months a subject was a responder: Three months (Abdominal pain/discomfort) [4]: 96 (42) n (%)
- Number of months a subject was a responder: Three months (Abnormal bowel habits) [4]: 83 (36) n (%)
- Number of months a subject was a responder: Three months (IBS symptoms) [4]: 80 (35) n (%)
- Number of months a subject was a responder: Two months (Abdominal pain/discomfort) [4]: 29 (13) n (%)
- Number of months a subject was a responder: Two months (Abnormal bowel habits) [4]: 37 (16) n (%)
- Number of months a subject was a responder: Two months (IBS symptoms) [4]: 35 (15) n (%)
- Number of months a subject was a responder: Zero months (Abdominal pain/discomfort) [4]: 79 (34) n (%)
- Number of months a subject was a responder: Zero months (Abnormal bowel habits) [4]: 83 (36) n (%)
- Number of months a subject was a responder: Zero months (IBS symptoms) [4]: 86 (37) n (%)
- Number of months a subject was a responder: One month (Abdominal pain/discomfort) [5]: 16 (14) n (%)
- Number of months a subject was a responder: One month (Abnormal bowel habits) [5]: 13 (11) n (%)
- Number of months a subject was a responder: One month (IBS symptoms) [5]: 16 (14) n (%)
- Number of months a subject was a responder: Three months (Abdominal pain/discomfort) [5]: 43 (38) n (%)
- Number of months a subject was a responder: Three months (Abnormal bowel habits) [5]: 46 (40) n (%)
- Number of months a subject was a responder: Three months (IBS symptoms) [5]: 39 (34) n (%)
- Number of months a subject was a responder: Two months (Abdominal pain/discomfort) [5]: 18 (16) n (%)
- Number of months a subject was a responder: Two months (Abnormal bowel habits) [5]: 15 (13) n (%)
- Number of months a subject was a responder: Two months (IBS symptoms) [5]: 18 (16) n (%)
- Number of months a subject was a responder: Zero months (Abdominal pain/discomfort) [5]: 37 (32) n (%)
- Number of months a subject was a responder: Zero months (Abnormal bowel habits) [5]: 40 (35) n (%)
- Number of months a subject was a responder: Zero months (IBS symptoms) [5]: 41 (36) n (%)
- Number of months a subject was a responder: One month (Abdominal pain/discomfort) [6]: 9 (6) n (%)
- Number of months a subject was a responder: One month (Abnormal bowel habits) [6]: 16 (11) n (%)
- Number of months a subject was a responder: One month (IBS symptoms) [6]: 18 (12) n (%)
- Number of months a subject was a responder: Three months (Abdominal pain/discomfort) [6]: 72 (49) n (%)
- Number of months a subject was a responder: Three months (Abnormal bowel habits) [6]: 68 (46) n (%)
- Number of months a subject was a responder: Three months (IBS symptoms) [6]: 60 (41) n (%)
- Number of months a subject was a responder: Two months (Abdominal pain/discomfort) [6]: 25 (17) n (%)
- Number of months a subject was a responder: Two months (Abnormal bowel habits) [6]: 22 (15) n (%)
- Number of months a subject was a responder: Two months (IBS symptoms) [6]: 24 (16) n (%)
- Number of months a subject was a responder: Zero months (Abdominal pain/discomfort) [6]: 42 (28) n (%)
- Number of months a subject was a responder: Zero months (Abnormal bowel habits) [6]: 42 (28) n (%)
- Number of months a subject was a responder: Zero months (IBS symptoms) [6]: 46 (31) n (%)
- Overall responder rate, adequate relief of IBS symptoms [7]: 81 (55) n (%)
- Overall responder rate, adequate relief of abdominal pain/discomfort [7]: 89 (60) n (%)
- Overall responder rate, adequate relief of abnormal bowel habits [7]: 84 (57) n (%)
- Number of months a subject was a responder: One month (Abdominal pain/discomfort) [8]: 33 (17) n (%)
- Number of months a subject was a responder: One month (Abnormal bowel habits) [8]: 24 (12) n (%)
- Number of months a subject was a responder: One month (IBS symptoms) [8]: 27 (14) n (%)
- Number of months a subject was a responder: Three months (Abdominal pain/discomfort) [8]: 67 (34) n (%)
- Number of months a subject was a responder: Three months (Abnormal bowel habits) [8]: 61 (31) n (%)
- Number of months a subject was a responder: Three months (IBS symptoms) [8]: 59 (30) n (%)
- Number of months a subject was a responder: Two months (Abdominal pain/discomfort) [8]: 22 (11) n (%)
- Number of months a subject was a responder: Two months (Abnormal bowel habits) [8]: 30 (15) n (%)
- Number of months a subject was a responder: Two months (IBS symptoms) [8]: 29 (15) n (%)
- Number of months a subject was a responder: Zero months (Abdominal pain/discomfort) [8]: 74 (38) n (%)
- Number of months a subject was a responder: Zero months (Abnormal bowel habits) [8]: 81 (41) n (%)
- Number of months a subject was a responder: Zero months (IBS symptoms) [8]: 81 (41) n (%)
- Overall responder rate, adequate relief of IBS symptoms [9]: 87 (44) n (%)
- Overall responder rate, adequate relief of abdominal pain/discomfort [9]: 90 (46) n (%)

Source: patent publication US20090176817A1, “Method of Treatment of Diarrhea-Predominant Irritable Bowel Syndrome in a Subject” (priority 2005, published 2009)
